Experimental data reported in patent US20220249504A1, “LONGEVITY SIGNATURES AND THEIR APPLICATIONS” (The Brigham and Women's Hospital, Inc., priority 2019, published 2022).
“Also recorded” adds a separate entry of the source.

Experiments:
C57BL/6 mice [1] = assay: Frailty index of old C57BL/6 mice on compound diet; assay type: in vivo, mouse
Method: (§1) Briefly, 24-28 mice per intervention were used, with an approximately equal number of males and females. Mice were first assessed with regard to frailty index and gait speed, and then randomized to make sure the experimental and control groups had the same average frailty index and gait speed. Mice were then given a diet containing a compound of interest. […] Mice were monitored daily until they died. A separate cohort of old mice was assessed for frailty index and gait speed.
as §1, with “females. They” for “females. Mice”

C57BL/6 mice [2] = assay: Glucose tolerance in old C57BL/6 mice on compound diet; assay type: in vivo, mouse; conditions: old C57BL/6 mice at the dose given in diet (AZD-8055: 23-month-old, treated 2.5 months)
Method: 23-month-old mice were treated for 2.5 months prior to analyses.

C57BI/6 mice = assay: Lifespan of old (2-year-old) C57BL/6 mice given a diet containing the compound; assay type: in vivo, mouse; conditions: C57BL/6 male mice, given late in life, ad libitum in diet (AZD-8055 20 mg/kg of food, LY294002 600 mg/kg, KU-0063794 10 mg/kg of diet)
Method: as §1
Interventions were predicted in a screen based on the gene expression longevity signatures that we developed. The predicted interventions were then verified for gene expression responses in human and mouse primary cell culture (hepatocytes) and in live mice (after mice were fed for 1 month with the diets containing these interventions). The interventions that passed these tests were further assessed for the effect on lifespan of 2-year-old C57BI/6 mice. Older mice (2-year-old) were chosen for this experiment in order to mimic the effect of giving interventions to human subjects in their second half of life.
as §1, with “females. They” for “females. Mice”

C57BL/6 mice [3] = assay: Gait speed of old C57BL/6 mice on compound diet; assay type: in vivo, mouse; conditions: 31-month-old C57BL/6 male mice
Method: as §1
as §1, with “females. They” for “females. Mice”

longevity signatures = assay: GSEA-based association of publicly available hepatic gene expression datasets with longevity signatures; assay type: in vivo, mouse; conditions: for Association of hepatic gene expression changes with longevity signatures: public datasets (IL-6 injection GSE21060; SRT2104 in males GSE49000)
Excerpt: For interventions from publicly available sources (FIG. 7E (upper)), we downloaded them from GEO under the following accession numbers: GSE21060 (Ramadoss et al., 2010), GSE77082 (Alonso et al., 2017), GSE15891 (Baze et al., 2010), GSE11287 (Osburn et al., 2008), GSE49000 (Mercken et al., 2014), GSE10421 (Kautz et al., 2008) and GSE104234 (Rhoads et al., 2018). Data corresponding to Sirt6 overexpression (Kanfi et al., 2012) were downloaded via the link provided in the original paper. When running association test for the rhesus monkey data, we converted monkey genes to mouse orthologs using Ensembl BioMart platform. We preprocessed each dataset, performed quantile normalization and Entrez ID transformation and applied limma model for calculation of p-values, which were converted to log10(p-value) corrected by the sign of regulation as explained earlier.
To calculate statistical significance of obtained GSEA score, we performed permutation test where we randomly assigned genes to the lists of gene set maintaining their size. To get p-value of association between certain intervention and longevity signature, we calculated the frequency of real final GSEA score being bigger by absolute value than random final GSEA scores obtained as results of 3,000 permutations. To adjust for multiple comparisons, we performed Benjamini-Hochberg procedure. Resulted adjusted p-values were converted into significance scores as:
significance score=−log10(adj.pv)×sgn(GSEA score),
where adj. pv and GSEA score are BH adjusted p-value and final GSEA score, respectively. Heatmaps were colored based on values of significance scores. […]

mice = conditions: cited from earlier work; for Effect on lifespan in the ITP mouse cohort: at the concentrations used (Miller et al., 2011; Strong et al., 2013, 2016)
sex-associated genes = assay: Feminizing effect of lifespan-extending interventions on hepatic gene expression (RNAseq, UM-HET3 mice); conditions: females
Excerpt: Liver samples corresponding to lifespan-extending interventions for RNA-seq and metabolome analysis were taken at 6 and 12 months of age from male and female mice treated by drugs or exposed to caloric restriction (CR) diet from 4 months of age along with control mice, which were untreated littermate mice matched by age and sex.
In all cases, interventions continued until the animals were sacrificed. […] RNA was extracted from liver tissues with PureLink RNA Mini Kit as described in the protocol and passed to sequencing.
For samples corresponding to lifespan-extending interventions, paired-end sequencing with 100 bp read length was performed on illumine HiSeq2000 platform. […] Quality filtering and adapter removal were performed using Trimmomatic version 0.32.
When performing analysis of the feminizing effect, gene expression differences were identified between control males and females from UM-HET3 strains for each age group. […] The statistical significance of correlation between sex-associated differences and response to certain intervention (“feminizing effect”) was calculated using Spearman correlation test and adjusted for multiple comparisons with Benjamini-Hochberg procedure. When calculating correlation between response to certain intervention in specific age group (6 or 12 months) and female-associated differences, the latter were calculated using gene expression data for control males and females from the other age group (12 or 6 months, respectively). […]
Differences in the feminizing effect of interventions in certain age groups between males and females was tested by Spearman correlation test, applied to the difference in log2FC of gender-associated genes in response to the specified conditions between males and females, and female-associated differences based on the other age group, with the following Benjamini-Hochberg adjustment. Manhattan distance between male and female gene expression profiles was calculated for individual samples in a pairwise manner using intersection of sex-specific gene sets across age groups. […]

[4] = tested on: mouse liver gene expression; assay: Meta-analysis: Spearman correlation between hepatic gene expression profiles of interventions; assay type: in vivo; conditions: for Correlation with the main cluster of interventions (defined by CR and GH deficiency): median Spearman correlation matrix
Excerpt: To identify signatures associated with lifespan extension and the effect of certain interventions, we expanded our data with publicly available datasets from Gene Expression Omnibus (GEO) (Edgar, 2002) and ArrayExpress (Kolesnikov et al., 2015) databases. For the analysis of signatures associated with certain interventions (CR, rapamycin, GH deficiency), we integrated available gene expression data obtained from liver of mice from healthy genetic strains on standard diets subjected to CR, rapamycin and mutations associated with GH deficiency (Ames dwarf mice, GHRKO, Little mice, Snell dwarf mice). […] Finally, for the analysis of signatures associated with the lifespan extension effect, we integrated datasets on interventions with available and reliable survival data corresponding to the same experimental design (sex, strain, dose, age when the intervention started). In total, our hepatic meta-analysis covered 17 different interventions presented in 77 control-intervention datasets from 22 different sources (including ours) (FIG. 3D). The same approach was used to obtain microarray data corresponding to white adipose tissue (WAT) (9 control-intervention datasets from 5 sources) and skeletal muscle (13 control-intervention datasets from 9 sources).
To aggregate data across different platforms and studies, we developed the following method. First, data within each study was preprocessed independently and log-transformed to conform to normal distribution if needed. Then, filtering of low-covered genes was performed with soft threshold. Then, all identifiers were mapped to Entrez ID gene format, and genes not detected in our RNAseq data were filtered out. […] Afterwards, samples within every study were normalized by quantile normalization and scaling, followed by multiplication by the certain value to make it on the same scale as RNAseq data with more natural interpretation. Finally, mean and standard error of logFC of every gene for every response to intervention was calculated together with p-value (along with Benjamini-Hochberg adjusted p-value) estimated by edgeR (Robinson et al., 2009) and limma (Ritchie et al., 2015) for RNAseq and microarrays datasets, respectively. […] Importantly, one study may include several datasets if several interventions or settings have been analyzed there, and sometimes, different interventions or doses share the same control samples. This may be a source of batch effect, which we removed during subsequent steps of the analysis.
To calculate correlations between interventions in unbiased way, we applied the following approach. For every pair of interventions, including comparison of intervention with itself, we examined all pairs of datasets from different sources. For each such pair we selected 250 genes consisting of 125 genes with the most significant expression change (with the lowest p-values) from each dataset and calculated Spearman correlation coefficient within the pair. We reiterated this algorithm and, as a result, for every pair of interventions obtained distribution of Spearman correlation coefficients, calculated between datasets from different sources. For CR and rapamycin, we visualized these distributions using violinplot. One-sample Mann-Whitney test and Benjamini-Hochberg adjustment were used to check if means of correlation coefficients are different from 0 with statistical significance. We declared correlation coefficient to be significant if adjusted p-value was smaller than 0.1.
For correlation matrix we employed median values of Spearman correlation coefficients. By filtering out comparisons of datasets from the same source, we removed possible batch effect and ended up with independent and unbiased comparison of interventions. However, as some interventions were presented only within the same source, we couldn't estimate unbiased correlation for such cases. This missing data was visualized by grey boxes. […]

[5] = datasets from different sources, 250 genes

COc1ccc(-c2ccc3c(N4CCOC[C@@H]4C)nc(N4CCOC[C@@H]4C)nc3n2)cc1CO [AZD-8055, 5-[2,4-bis[(3S)-3-methyl-4-morpholinyl]pyrido[2,3-d]pyrimidin-7-yl]-2-methoxy-benzenemethanol]
Effect on frailty index (C57BL/6 mice [1]; old C57BL/6 mice, males and females): no effect | Effect on glucose tolerance (C57BL/6 mice [2]): does not lead to glucose intolerance; also recorded: did not compromise

O=c1cc(N2CCOCC2)oc2c(-c3ccccc3)cccc12 [LY294002, 2-Morpholin-4-yl-8-phenylchromen-4-one]
Effect on lifespan (C57BI/6 mice): extends lifespan | Effect on frailty index (C57BL/6 mice [1]; 31-month-old C57BL/6 male mice): improves | Effect on gait speed (C57BL/6 mice [3]): improves | Effect on glucose tolerance (C57BL/6 mice [2]): No effect; also recorded: did not have a significant effect

Cc1nc(-c2cccnc2)sc1C(=O)Nc1ccccc1-c1cn2c(CN3CCOCC3)csc2n1 [SRT2104]
Association with longevity signatures associated with the quantitative effect of lifespan extension (longevity signatures; males, public dataset): no consistent positive association | Association of hepatic gene expression changes with longevity signatures (longevity signatures): significant positive associations of these models in males with CR and signatures shared by lifespan-extending interventions | Increase in median and maximum lifespan (mice; male mice (Mercken et al., 2014b)): ~10%

C[C@H]1O[C@H](O[C@H]2[C@H](O)[C@@H](O)[C@@H](O[C@H]3[C@H](O)[C@@H](O)C(O)O[C@@H]3CO)O[C@@H]2CO)[C@H](O)[C@@H](O)[C@@H]1N[C@H]1C=C(CO)[C@@H](O)[C@H](O)[C@H]1O (stereo partly drawn) [acarbose]
Feminizing effect (Spearman correlation with sex-associated gene expression differences) (sex-associated genes; 12-month-old): 0.19

CN(C)C(=N)N=C(N)N [metformin]
Correlation with CR at the level of gene expression (median Spearman correlation coefficient) [4, 5]: statistically significant positive correlations | Correlation with the main cluster of interventions (defined by CR and GH deficiency) [4]: week positive correlation | Effect on lifespan in the ITP mouse cohort (mice): did not increase lifespan

CO[C@H]1C[C@@H]2CC[C@@H](C)[C@@](O)(O2)C(=O)C(=O)N2CCCC[C@H]2C(=O)O[C@H]([C@H](C)C[C@@H]2CC[C@@H](O)[C@H](OC)C2)CC(=O)[C@H](C)/C=C(\C)[C@@H](O)[C@@H](OC)C(=O)[C@H](C)C[C@H](C)/C=C/C=C/C=C/1C [rapamycin]
Correlation of the intervention with itself across datasets (median Spearman correlation coefficient) [4, 5]: 0.088 | Correlation with CR at the level of gene expression (median Spearman correlation coefficient) [4, 5]: −0.049 | Feminizing effect (Spearman correlation with sex-associated gene expression differences) (sex-associated genes; 6-month-old): −0.14 | Feminizing effect (Spearman correlation with sex-associated gene expression differences) (sex-associated genes; 12-month-old): −0.49

Oc1ccc(C=Cc2cc(O)cc(O)c2)cc1 [resveratrol]
Correlation with CR at the level of gene expression (median Spearman correlation coefficient) [4, 5]: statistically significant positive correlations | Correlation with the main cluster of interventions (defined by CR and GH deficiency) [4]: week positive correlation | Effect on lifespan in the ITP mouse cohort (mice): did not increase lifespan

interleukin-6: pro-inflammatory cytokine secreted by T cells and macrophages
Association of hepatic gene expression changes with longevity signatures (longevity signatures): significant negative association with all longevity signatures
